In article PMC3870094 (Environmental science & technology, 2013):
“And” between values parts separate entries of the source, which are not always exact repeats. Equal entries are not always repeated.

Experiments:
Rat CYP2B1 [1] = biological target: T1, Rat CYP2B1 (Rattus norvegicus, UniProt P00176); assay type: in vitro ADME; settings: for Formation of metabolite with increases in initial (+)-PCB 136 concentration: 500 ng (−)-PCB 136 as major substrate
T1 sequence (P00176 1-491): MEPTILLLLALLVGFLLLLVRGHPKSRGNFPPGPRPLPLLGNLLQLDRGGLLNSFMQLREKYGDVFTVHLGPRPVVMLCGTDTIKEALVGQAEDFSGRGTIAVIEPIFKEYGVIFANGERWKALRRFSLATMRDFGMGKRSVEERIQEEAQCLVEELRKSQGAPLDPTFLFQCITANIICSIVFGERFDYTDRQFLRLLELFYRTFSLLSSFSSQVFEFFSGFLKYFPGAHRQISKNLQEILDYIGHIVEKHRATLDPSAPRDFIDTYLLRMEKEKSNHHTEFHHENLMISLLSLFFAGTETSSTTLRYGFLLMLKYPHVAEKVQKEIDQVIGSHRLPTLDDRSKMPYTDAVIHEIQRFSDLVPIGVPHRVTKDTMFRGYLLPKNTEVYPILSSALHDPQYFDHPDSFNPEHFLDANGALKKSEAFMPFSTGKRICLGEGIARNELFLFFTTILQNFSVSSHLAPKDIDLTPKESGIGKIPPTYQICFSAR

Rat CYP2B1 [2] = biological target: T1, Rat CYP2B1; settings: for Biotransformation activity of atropisomer compared with antipode: Fig. 1A1; for Average EF of 5-OH-PCB metabolite: formed from parent PCB by rat CYP2B1, 60 min, two enantioselective columns; for Depletion of OH-PCB after 60 min: rat CYP2B1, OH-PCB as substrate; for EF of OH-PCB substrate after biotransformation: rat CYP2B1, racemic OH-PCB as substrate; for 4-OH-PCB metabolites detected by GC-ECD: not confirmed by GC-MS; for Formation of 4,5-DiOH-PCB from PCB: Fig. 1B1; for Depletion of PCB after 60 min incubation: rat CYP2B1, 1000 ng/mL PCB
rat liver microsomes = settings: cited from earlier work
[3] = cited from earlier work; for EF of OH-PCB 95 in the liver: female C57Bl/6 mice
[4] = cited from earlier work
[5] = Sprague-Dawley rats, intraperitoneal injection of PCB 136; cited from earlier work

For Oc1c(O)c(Cl)c(-c2c(Cl)ccc(Cl)c2Cl)c(Cl)c1Cl [4,5-136, 3,4-dihydroxy −2,2',3',5,6,6'-hexachlorobiphenyl], the “Formation of metabolite with increases in initial (+)-PCB 136 concentration” value (Rat CYP2B1 [1]; 60 min) was “significantly decreased”.

With Oc1c(O)c(Cl)c(-c2cc(Cl)ccc2Cl)c(Cl)c1Cl [4,5-95, 3,4-dihydroxy −2,2',5,5',6-pentachlorobiphenyl] the “EF of 4,5-95 formed” value (Rat CYP2B1 [2]; rat CYP2B1, 4-95 incubation, 60 min) was 0.53.

With Clc1ccc(Cl)c(-c2c(Cl)ccc(Cl)c2Cl)c1 [E2-95] the “Biotransformation activity of atropisomer compared with antipode” value (Rat CYP2B1 [2]; rat CYP2B1, 60 min) was “significantly higher than their respective antipodes”.

For Oc1cc(Cl)c(Cl)c(-c2ccc(Cl)cc2Cl)c1Cl [5-91, 2,2',3,4',6-pentachlorobiphenyl-5-ol], the “EF of 5-OH-PCB from incubation of parent PCB with rat liver microsomes” value (from here on “EF of 5-OH-PCB … with rat liver microsomes”) (rat liver microsomes) is given as 0.54 and the “Average EF of 5-OH-PCB metabolite” value (Rat CYP2B1 [2]) is given as 0.17.

In the case of Oc1cc(Cl)c(-c2cc(Cl)ccc2Cl)c(Cl)c1Cl [4-95, 2,2',3,5',6-pentachlorobiphenyl-4-ol], the “Depletion of OH-PCB after 60 min” value (Rat CYP2B1 [2]; 60 min) is given as 40%, the “EF of OH-PCB substrate after biotransformation” value (Rat CYP2B1 [2]; 60 min) is given as 0.62 and the “EF of OH-PCB 95 in the liver” value [3] is given as “about 0.20”.

In the case of Clc1ccc(Cl)c(-c2c(Cl)ccc(Cl)c2Cl)c1 [PCB 95, 2,2',3,5',6-pentachlorobiphenyl], the “Yield of 5-OH-PCB metabolite in rat liver microsomal studies” value (“Yield of 5-OH-PCB metabolite” for short) (rat liver microsomes) is given as 8.8%, the “4-OH-PCB metabolites detected by GC-ECD” value (Rat CYP2B1 [2]; rat CYP2B1, 60 min) is given as “minor products” and the “EF of PCB in vivo in rats” value [4] is given as > 0.5.

With Clc1ccc(Cl)c(-c2c(Cl)ccc(Cl)c2Cl)c1Cl [(−)-PCB 136] the “5-136 atropisomer formed in pure atropisomer incubation” value (Rat CYP2B1 [1]; pure (−)-PCB 136 incubations, Fig. 4A2) was “E1-5-136 was the only metabolite”.

For Clc1ccc(-c2c(Cl)ccc(Cl)c2Cl)c(Cl)c1 [E1-91], the “Biotransformation activity of atropisomer compared with antipode” value (Rat CYP2B1 [2]; rat CYP2B1, 60 min) was “significantly higher than their respective antipodes”.

With Clc1ccc(-c2c(Cl)ccc(Cl)c2Cl)c(Cl)c1Cl [(−)-132] the “Biotransformation activity of atropisomer compared with antipode” value (Rat CYP2B1 [2]; rat CYP2B1, 60 min) was “significantly higher than their respective antipodes”.

In the case of Oc1cc(Cl)c(Cl)c(-c2cc(Cl)ccc2Cl)c1Cl [5-95, 2,2',3,5',6-pentachlorobiphenyl-5-ol], the “EF of 5-OH-PCB … with rat liver microsomes” value (rat liver microsomes) is given as 0.36, the “Average EF of 5-OH-PCB metabolite” value (Rat CYP2B1 [2]) is given as 0.20 and ~ 0.20 and the “Biotransformation activity of 5-95 compared with 4-95” value (Rat CYP2B1 [2]; rat CYP2B1, 60 min, Fig. 2A1) is given as “significantly greater biotransformation activity”. For the same compound, the “Depletion of OH-PCB after 60 min” value (Rat CYP2B1 [2]; 60 min) was 64%, the “EF of OH-PCB substrate after biotransformation” value (Rat CYP2B1 [2]; 60 min) was 0.46 and the “EF of OH-PCB 95 in the liver” value [3] was ~0.65.

With Oc1cc(Cl)c(-c2c(Cl)ccc(Cl)c2Cl)c(Cl)c1Cl [4-136, 2,2',3,3',6,6'-hexachlorobiphenyl-4-ol] the “Formation of metabolite with increases in initial (−)-PCB 136 concentration” value (Rat CYP2B1 [1]; 500 ng (+)-PCB 136 as major substrate, 60 min) was “significant increase” and the “Formation of metabolite with increases in initial (+)-PCB 136 concentration” value (Rat CYP2B1 [1]; 60 min) was “significantly decreased”.

For Clc1ccc(-c2c(Cl)ccc(Cl)c2Cl)c(Cl)c1 [PCB 91, 2,2',3,4',6-pentachlorobiphenyl], the “Yield of 5-OH-PCB metabolite” value (rat liver microsomes) is given as 20%, the “Formation of 4,5-DiOH-PCB from PCB” value (Rat CYP2B1 [2]; rat CYP2B1, 60 min) is given as “minor metabolites” and the “4-OH-PCB metabolites detected by GC-ECD” value (Rat CYP2B1 [2]; rat CYP2B1, 60 min) is given as “minor products”.

With Clc1ccc(Cl)c(-c2c(Cl)ccc(Cl)c2Cl)c1Cl [(+)-PCB 136] the “Biotransformation activity of (+)-PCB 136 in the presence of (−)-PCB 136” value (Rat CYP2B1 [1]; 500 ng (+)-PCB 136, 0-500 ng/mL (−)-PCB 136, 60 min) was “not significantly affected” and the “Biotransformation activity of atropisomer compared with antipode” value (Rat CYP2B1 [2]; rat CYP2B1, 60 min) was “significantly higher than their respective antipodes”.

For Clc1ccc(Cl)c(-c2c(Cl)ccc(Cl)c2Cl)c1Cl [PCB 136, 2,2',3,3',6,6'-hexachlorobiphenyl], the “EF of PCB after 30 min microsomal incubation” value (rat liver microsomes; 30 min) is listed as 0.40, the “Yield of 5-OH-PCB metabolite” value (rat liver microsomes) is listed as 22% and the “Depletion of PCB after 60 min incubation” value (Rat CYP2B1 [2]; 60 min) is listed as 21%. For the same compound, the “Formation of 4,5-DiOH-PCB from PCB” value (Rat CYP2B1 [2]; rat CYP2B1, 60 min) was “minor metabolites”, the “4-OH-PCB metabolites detected by GC-ECD” value (Rat CYP2B1 [2]; rat CYP2B1, 60 min) was “minor products” and the “EF of PCB in mice tissues after oral administration” value ([3]; C57Bl/6 female mice tissues, oral administration) was ~0.7.

In the case of Oc1cc(Cl)c(Cl)c(-c2cc(Cl)c(Cl)cc2Cl)c1Cl [5-149, 2,2',4',5,5',6-hexachlorobiphenyl-3-ol], the “EF of 5-OH-PCB … with rat liver microsomes” value (rat liver microsomes) is listed as 0.66 and the “Average EF of 5-OH-PCB metabolite” value (Rat CYP2B1 [2]) is listed as 0.41.

In the case of Clc1cc(Cl)c(-c2c(Cl)ccc(Cl)c2Cl)cc1Cl [PCB 149, 2,2',3,4',5',6-hexachlorobiphenyl], the “EF of PCB 149 after 30 min biotransformation by rat liver microsomes” value (rat liver microsomes; 30 min) is listed as 0.46, the “Yield of 5-OH-PCB metabolite” value (rat liver microsomes) is listed as 2.6% and the “Depletion of PCB after 60 min incubation” value (Rat CYP2B1 [2]; 60 min) is listed as 4%. For the same compound, the Stereoselectivity of biotransformation (Rat CYP2B1 [2]; rat CYP2B1, 60 min) was “no apparent stereoselectivity”.

In the case of Oc1cc(Cl)c(Cl)c(-c2c(Cl)ccc(Cl)c2Cl)c1Cl [5-136, 2,2',3,3',6,6'-hexachlorobiphenyl-5-ol], the “Formation of metabolite with increases in initial (+)-PCB 136 concentration” value (Rat CYP2B1 [1]; 60 min) is given as “not influenced”, the “EF of 5-OH-PCB … with rat liver microsomes” value (rat liver microsomes) is given as 0.70 and the “Average EF of 5-OH-PCB metabolite” value (Rat CYP2B1 [2]) is given as 0.77. The “EF of 5-136 in livers” value [5] was “≈ 0.4”.

For Oc1cc(Cl)c(Cl)c(-c2ccc(Cl)c(Cl)c2Cl)c1Cl [5’-132, 2,2',3,3',4',6-hexachlorobiphenyl-5-ol], the “EF of 5-OH-PCB … with rat liver microsomes” value (rat liver microsomes) is listed as 0.30 and the “Average EF of 5-OH-PCB metabolite” value (Rat CYP2B1 [2]) is listed as 0.85.

For Clc1ccc(-c2c(Cl)ccc(Cl)c2Cl)c(Cl)c1Cl [PCB 132, 2,2',3,3',4,6'-hexachlorobiphenyl], the “Yield of 5-OH-PCB metabolite” value (rat liver microsomes) is listed as 16% and the “Depletion of PCB after 60 min incubation” value (Rat CYP2B1 [2]; 60 min) is listed as 11%.
